Assay results as given in US8653304B2, “2,3-dihydro-1H-indene-2-yl urea derivative and pharmaceutical application of same” (Toray Industries, Inc., priority 2009, dated 2014).

Key:
[1] = molecular target: human p38 MAPK α (Homo sapiens (Human), UniProt Q16539); assay: Evaluation of p38 MAPK inhibitory activity (Alpha Screen, ATF2 phosphorylation); format: biochemical; settings: p38α/SAPK2a 1.5 nM, ATP 100 μM, biotinylated ATF2 30 nM
Procedure: Using human p38 MAPK α, the p38 MAPK inhibitory activity of Compound (I) was studied by a method partially modified from the method described in Current Medicinal Chemistry (2004, No. 11, pp. 721-730).
A solution of each test compound solution in 100% DMSO and a p38α/SAPK2a solution (Final Concentration: 1.5 nM) (Invitrogen) were added to a 384-well plate, and then the plate was incubated at room temperature in a dark place for 1 hour. Thereafter, ATP (Final Concentration: 100 μM), which is a phosphate donor, and biotinylated ATF2 (Final Concentration: 30 nM) (upstate), which is a substrate, were added, and the resulting mixture was allowed to react at room temperature in a dark place for 1 hour (the final concentration of DMSO was 0.25%). After the reaction, an anti-phosphorylated ATF2 antibody (Final Concentration: 1 nM) (Cell Signaling), anti-IgG acceptor beads (Final Concentration: 20 μg/mL) (PerkinElmer) and streptavidin donor beads (Final Concentration: 20 μg/mL) (PerkinElmer) were added, and the resultant was incubated at room temperature in a dark place for 1 hour. Using a microplate analyzer (Fusion-α, Packard) in Alpha Screen method (Amplified Luminescent Proximity Homogeneous Assay), the light emission was detected. The IC50 value of each compound was calculated by sigmoidal dose-response regression using Prism 4.02 (GraphPad Software, Inc.).

[2] = test system: TNFα production; assay: Cytokine production suppressing activity using human whole blood (LPS stimulation); format: cell-based; settings: LPS 200 ng/mL, 37° C., 5 hours
Procedure: Using human whole blood, the inhibitory action of Compound (I) on the TNFα production by LPS stimulation was studied by a method partially modified from the method described in Journal of Medicinal Chemistry (2003, Vol. 46, pp. 4676-4686).
A solution of each test compound in 100% DMSO and human blood were mixed in a 96-well flat-bottom plate. Thereafter, LPS (Final Concentration: 200 ng/mL) was added, and the resulting mixture was allowed to react at 37° C. for 5 hours (the final concentration of DMSO was 0.2%). After the reaction, the resultant was centrifuged for 20 minutes at room temperature, and the supernatant was collected. For the measurement of the TNFα amount in the supernatant, a human cytokine kit (CIS bio international) was used. As a comparative control compound, Comparative Compound 2 was used.

[3] = Pharmacokinetic evaluation in mouse (oral); format: in vivo; settings: male; BALB/c mouse, oral 0.8 mg/kg, plasma
Procedure: Each test compound was dissolved in 10% HP-β-CD (Nihon Shokuhin Kako Co., Ltd.) to prepare a solution to be administered (0.08 mg/mL, as a solution to be administered for oral administration). To each BALB/c mouse (male, 7-week old, Charles River Laboratories Japan, Inc.), each compound was orally administered at a dose of 0.8 mg/kg. Blood was collected from the jugular vein or heart with time up to 24 hours after the administration. The obtained blood was centrifuged to collect blood plasma. The blood plasma was pretreated by methanol extraction method, and the concentration of the compound was analyzed by LC/MS/MS (ESI positive mode).
In this table, Cmax represents a maximum plasma concentration; and AUC0-∞ represents an area under the curve of the plasma concentration of the compound from after the compound administration to infinite time.

[4] = test system: ICR mouse; assay: Evaluation of hepatotoxicity in mouse (plasma AST); format: in vivo; settings: oral 500 mg/kg, plasma on the day after administration
Procedure: Compound (I) was suspended in 0.5% methylcellulose (Wako Pure Chemical Industries, Ltd.) to prepare a 50 mg/mL solution to be administered. To each ICR mouse (male, 7-week old, Charles River Laboratories Japan, Inc.), each compound was orally administered at a dose of 500 mg/kg. On the day after the administration, blood was collected from the posterior vena cava, and the obtained blood was centrifuged to collect blood plasma. AST (aspartate aminotransferase) value, which is a marker of hepatic disorders in blood plasma, was measured with a biochemistry automatic analyzer (Hitachi 7070, Hitachi, Ltd.). Comparative Compound 4 was suspended in 0.5% sodium carboxymethylcellulose (Wako Pure Chemical Industries, Ltd.) before use.

Sequence of human p38 MAPK α (Q16539 whole entry): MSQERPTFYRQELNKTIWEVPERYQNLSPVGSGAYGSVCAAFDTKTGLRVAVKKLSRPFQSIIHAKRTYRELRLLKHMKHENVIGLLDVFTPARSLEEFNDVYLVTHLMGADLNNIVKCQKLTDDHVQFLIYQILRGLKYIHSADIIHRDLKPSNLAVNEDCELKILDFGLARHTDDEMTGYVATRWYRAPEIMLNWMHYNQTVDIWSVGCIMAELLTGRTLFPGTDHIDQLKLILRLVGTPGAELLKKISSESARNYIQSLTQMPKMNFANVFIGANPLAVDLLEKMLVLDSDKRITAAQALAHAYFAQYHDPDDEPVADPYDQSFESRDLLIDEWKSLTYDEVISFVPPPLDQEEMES

SMILES	IC50 [1] [nM]	IC50 [2] [nM]	other results
COc1c(NC(=O)NC2Cc3ccccc3C2)cc(C(C)(C)C)cc1C(O)C(F)(F)F (stereo not drawn) [Comparative Compound 1, 1-(5-tert-butyl-2-methoxy-3-(2,2,2-trifluoro-1-hydroxyethyl)phenyl)-3-(2,3-dihydro-1H-indene-2-yl)urea, reference compound]	117	–	–
COc1c(CO)cc(C(C)(C)C)cc1NC(=O)NC1Cc2ccccc2C1 [Comparative Compound 2, 1-(5-tert-butyl-3-(hydroxymethyl)-2-methoxyphenyl)-3-(2,3-dihydro-1H-indene-2-yl)urea]	–	5190	AUC(0-inf) [3]: 116 ng·h/mL; Cmax [3]: 79.7 ng/mL
Cc1ccc(-n2nc(C(C)(C)C)cc2NC(=O)Nc2ccc(OCCN3CCOCC3)c3ccccc23)cc1 [Comparative Compound 4, 1-(3-tert-butyl-1-p-tolyl-1H-pyrazol-5-yl)-3-(4-(2-morpholinoethoxy)naphthalen-1-yl)urea, reference compound]	–	–	AST value [4]: 145 U/L
C[S+]([O-])c1ccc(-c2nc(-c3ccncc3)c(-c3ccc(F)cc3)[nH]2)cc1 (stereo not drawn) [Comparative Compound 5, 4-(4-(4-fluorophenyl)-2-(4-(methylsulfinyl)phenyl)-1H-imidazol-5-yl)pyridine]	–	–	AUC(0-inf) [3]: 59.8 ng·h/mL; Cmax [3]: 11.4 ng/mL
COc1c(CO)cc(C(C)(C)C)cc1NC(=O)N[C@@H]1Cc2c(F)cccc2[C@@H]1O [Compound 3, 1-(5-tert-butyl-3-(hydroxymethyl)-2-methoxyphenyl)-3-((1S,2R)-4-fluoro-1-hydroxy-2,3-dihydro-1H-indene-2-yl)urea]	–	235	–

Now from value to molecule, other results behind:

IC50 [1] [nM]	IC50 [2] [nM]	SMILES	other results
24	109	COc1cccc2c1C[C@@H](NC(=O)Nc1cc(C(C)(C)C)cc([C@H](O)C(F)(F)F)c1OC)[C@H]2O (single isomer, unassigned) [Compound 52b]	–
16	115	COc1c(NC(=O)N[C@@H]2Cc3c(F)cccc3[C@@H]2O)cc(N2CCOCC2)cc1[C@H](O)C(F)(F)F (single isomer, unassigned) [Compound 84b]	–
29	–	CCC(C)(C)c1cc(NC(=O)N[C@@H]2Cc3ccccc3[C@@H]2O)c(OC)c([C@H](O)C(F)(F)F)c1 (single isomer, unassigned) [Compound 123b]	–
18	–	COc1c(NC(=O)N[C@@H]2Cc3ccccc3[C@@H]2O)cc(C(C)(C)C)cc1C(N)C(F)(F)F (stereo partly drawn) [Compound 47b, 1-(3-(1-amino-2,2,2-trifluoroethyl)-5-tert-butyl-2-methoxyphenyl)-3-((1S,2R)-1-hydroxy-2,3-dihydro-1H-indene-2-yl)urea]	–
–	182	COc1c(NC(=O)N[C@H]2Cc3ccc(F)cc3[C@H]2O)cc(C(C)(C)C)cc1[C@@H](O)C(F)(F)F [Compound 60b, 1-(5-tert-butyl-2-methoxy-3-((R)-2,2,2-trifluoro-1-hydroxyethyl)phenyl)-3-(cis-6-fluoro-1-hydroxy-2,3-dihydro-1H-indene-2-yl)urea]	–
